Test results taken from patent US12497396B2, “Nitrogen-containing heterocyclic derivatives, method therefor and application therefor as inhibitors of KRAS G12C for the treatment of cancers” (SHANGHAI HANSOH BIOMEDICAL CO., LTD., priority 2019, dated 2025).
Like-named read-outs stand apart in the source and are kept apart here.

Key:
[1] = system: phosphorylated ERK in KRAS G12C mutant cells Mia PaCa-2; assay: Inhibition of phosphorylated ERK level in Mia PaCa-2 cells (LANCE Ultra); type: cell-based; settings: Homo sapiens, 2 hours, read-out: Mia PaCa-2 pERK IC50
Description: As a preferred embodiment of the present disclosure, the method for detecting the inhibitory activity of phosphorylated ERK level is as follows: through cell culture, adding different concentrations of compound solutions to the cultured cells, continuing the culture for a period of time, lysing the cells, followed by centrifugation and […]; • further, the method of cell culture is: adjusting the cells to a suitable cell concentration with a complete medium, preferably the cell concentration is 1×10^6/mL, and spreading the cell suspension on a well plate for culture.
When Mia PaCa-2 cells were cultured to the appropriate fusion level, Mia PaCa-2 cells were collected, and the cell density was adjusted to 1×10^6/mL using complete culture medium, the cell suspension was spread on a 96-well plate, 50 μL per well, and placed adherent to the wall in a 37° C., 5% CO2 incubator overnight, compound solutions with different concentrations were prepared using DMSO and complete culture medium, a solvent control was set, the compound solution was added to a 96-well plate, 25 μL per well, and placed in a 37° C., 5% CO2 incubator for 2 hours of continuous culture, the supernatant was discarded from the cell culture plate, 50 μL of lysis solution was added to each well, and lysing was performed for 30 minutes by shaking at room temperature, then the mixture was centrifuged at 1000 rpm for 1 minute, 15 μL of supernatant was transferred to 384 well plate, 5 μL of detection mixture (Eu-labeled anti-ERK1/2 (T202-Y204) antibody with final concentration of 0.5 nM and ULight labeled anti-ERK1/2 antibody with final concentration of 5 nM) was added to each well, centrifuged at 1000 rpm for 1 minute and mixed uniformly, the reaction was carried out overnight at room temperature, the plate was read with BioTek Synergy H1, and the signal values was detected at 620 nm and 665 nm emission wavelengths by time-resolved fluorescence program.
The ratio of the signal values at 665 nm and 620 nm emission wavelength were calculated, and the ratio was used to calculate the inhibition rate, the concentration and the inhibition rate were fitted to a nonlinear regression curve using Graphpad Prism software, then the IC50 value was obtained.

[2] = in vitro; type: in vitro ADME; settings: for half-life at 0.5 μM: plasma
Procedure: (§1) Animal or human whole blood was collected, then the blood was put into a test tube containing anticoagulant, centrifuged at 3500 rpm for 10 min, and the upper layer of pale yellow plasma was collected. • 2), 10 μM of tested compound (m/M/V=C)
(§2) The compound was weighed, the stock solution was prepared with DMSO and the working solution was prepared with 100 mM phosphate buffer. • 3), 10 μM of positive control (1) Propantheline (Propantheline Mr=449.4 Da)
(§3) • 1) 285 μL of plasma and 15 μL of 10 μM compound (tested compound) were added in turn in a 96-well plate, and incubated at 37° C. • 2) 40 μL was taken out at 0, 15, 30, 60, 90, 120 min, respectively, and 160 μL of acetonitrile termination solution containing internal standard was added. • 3) After centrifugation (3500 rpm, 10 min), 50 μL of supernatant was taken out, and then diluted with 50 μL DDH2O and injected to LC-MS/MS.
(§4) • Instrument: Shimadzu LC-20 AD • Chromatographic column: phenomenex Gemiu® C18 (50*4.6 mm, 5 μM particle size); • mobile phase: A: acetonitrile, B: 0.1% formic acid solution […], 2.0-2.1 min: 90% A→5% A; flow rate: 0.8 mL/min; running time: 5.0 min; injection volume: 5 μL.
(§5) • Instrument: API4000 Liquid Chromatography-Mass Spectrometry, AB, USA; • the ion source was electrospray ionization source (ESI); • the temperature of dry gas (N2) was 500° C.; • electrospray voltage was 5500V; • the detection method was positive ion detection; • the scanning mode was selective response monitoring (MRM). • the scanning time was 0.1 s.

[3] = Plasma stability, rat plasma; type: in vitro ADME; settings: for Residual rate (%) 0 min / Residual rate (%) 15 min / Residual rate (%) 30 min / Residual rate (%) 60 min / Residual rate (%) 120 min: rat plasma, 37° C.; for half-life at 0.5 μM: rat, plasma
Procedure: as §1, §2, §3, §4, §5

[4] = Plasma stability, dog plasma; type: in vitro ADME; settings: for Residual rate (%) 0 min / Residual rate (%) 15 min / Residual rate (%) 30 min / Residual rate (%) 60 min / Residual rate (%) 120 min: dog plasma, 37° C.; for half-life at 0.5 μM: dog, plasma
Procedure: as §1, §2, §3, §4, §5

[5] = target: T1, CYP2C9 (Homo sapiens, UniProt P11712); assay: CYP enzyme single point inhibition, human liver microsomes, 2C9; type: in vitro ADME; settings: single point method
T1 construct: from tissue; host or cells: human liver microsomes
T1 sequence (P11712 whole entry): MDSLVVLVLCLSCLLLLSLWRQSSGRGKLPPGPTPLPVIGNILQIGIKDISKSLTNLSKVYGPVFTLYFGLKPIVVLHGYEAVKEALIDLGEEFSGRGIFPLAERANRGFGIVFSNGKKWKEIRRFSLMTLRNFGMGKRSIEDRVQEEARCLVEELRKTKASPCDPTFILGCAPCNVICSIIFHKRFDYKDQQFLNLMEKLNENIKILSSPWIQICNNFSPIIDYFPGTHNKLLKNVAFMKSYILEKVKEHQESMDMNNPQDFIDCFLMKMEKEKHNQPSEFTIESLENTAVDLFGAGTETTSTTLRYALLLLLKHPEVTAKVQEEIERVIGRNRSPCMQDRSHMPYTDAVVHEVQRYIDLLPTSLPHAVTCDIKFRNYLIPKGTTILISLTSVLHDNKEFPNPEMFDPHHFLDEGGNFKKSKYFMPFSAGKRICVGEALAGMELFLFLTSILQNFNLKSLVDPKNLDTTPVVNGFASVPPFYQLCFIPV
Procedure: (§6) Using human liver microsomal incubation system, the inhibition of CYP450 enzyme subtypes by compounds was rapidly predicted by single point method.
(§7) 2.5 mM NADPH: 100 mM phosphate buffer was added to 4.165 mg of NADPH (reduced nicotinamide adenine dinucleotide phosphate) to 2 mL. 0.25 mg/mL microsome: 4 mL of 100 mM phosphate buffer was added to 50 μL of 20 mg/mL microsome and mixed well.
(§8) The embodiment compound to be tested was weighed and diluted to 10 mM with DMSO and then diluted to 100 μM with 100 mM phosphate buffer.
(§9) • 1. In a 96-well plate, 40 μL of liver microsomes, 10 μL of substrate, 10 μL of compound to be tested were pre-incubated for 3 min. • 2. 40 μL of NADPH was added. • 3. 300 μL of acetonitrile termination solution containing internal standard was added at 20 min. • 4. Centrifugal injection.

[6] = target: T2, CYP2C19 (Homo sapiens, UniProt P33261); assay: CYP enzyme single point inhibition, human liver microsomes, 2C19; type: in vitro ADME; settings: single point method
T2 construct: from tissue; host or cells: human liver microsomes
T2 sequence (P33261 whole entry): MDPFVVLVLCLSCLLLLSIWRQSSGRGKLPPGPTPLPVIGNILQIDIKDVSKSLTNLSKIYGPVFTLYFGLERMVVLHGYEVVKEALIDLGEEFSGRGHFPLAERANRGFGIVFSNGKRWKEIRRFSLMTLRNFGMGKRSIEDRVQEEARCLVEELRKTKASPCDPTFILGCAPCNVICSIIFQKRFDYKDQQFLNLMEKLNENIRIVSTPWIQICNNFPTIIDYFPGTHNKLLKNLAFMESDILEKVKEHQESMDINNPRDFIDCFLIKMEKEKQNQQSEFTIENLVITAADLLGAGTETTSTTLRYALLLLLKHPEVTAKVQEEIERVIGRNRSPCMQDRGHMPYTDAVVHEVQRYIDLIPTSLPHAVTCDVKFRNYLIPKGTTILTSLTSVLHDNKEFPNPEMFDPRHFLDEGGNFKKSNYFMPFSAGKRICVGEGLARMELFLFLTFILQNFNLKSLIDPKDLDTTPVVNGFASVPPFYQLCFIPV
Procedure: as §6, §7, §8, §9

[7] = target: T3, CYP3A4 (Homo sapiens, UniProt P08684); assay: CYP enzyme single point inhibition, human liver microsomes, 3A4; type: in vitro ADME; settings: single point method
T3 construct: from tissue; host or cells: human liver microsomes
T3 sequence (P08684 whole entry): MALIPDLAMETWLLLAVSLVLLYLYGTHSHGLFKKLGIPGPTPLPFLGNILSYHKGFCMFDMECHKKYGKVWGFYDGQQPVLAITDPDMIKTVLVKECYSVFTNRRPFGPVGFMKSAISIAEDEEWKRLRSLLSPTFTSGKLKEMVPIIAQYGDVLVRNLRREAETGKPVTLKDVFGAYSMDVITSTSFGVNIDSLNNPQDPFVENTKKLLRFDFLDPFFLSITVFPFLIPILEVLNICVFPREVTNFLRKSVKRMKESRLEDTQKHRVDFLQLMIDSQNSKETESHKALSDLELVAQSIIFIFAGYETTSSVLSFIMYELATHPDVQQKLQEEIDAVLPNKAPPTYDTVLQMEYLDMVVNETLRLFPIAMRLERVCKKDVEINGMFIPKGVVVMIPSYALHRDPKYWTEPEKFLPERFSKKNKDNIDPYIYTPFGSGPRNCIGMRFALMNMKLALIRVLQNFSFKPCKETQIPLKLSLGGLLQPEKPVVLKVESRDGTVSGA
Procedure: as §6, §7, §8, §9

[8] = in vivo; settings: male, Balb/c, mouse, po, 10 mg/kg
Procedure: 5 g of Hydroxyethyl cellulose (HEC, CMC-Na, viscosity: 800-1200 Cps) was weighed, dissolved in 1000 mL of purified water, and 10 g of Tween 80 was added. The mixture was mixed well to form a clear solution.
The embodiment compounds were weighed and added into 4-mL glass bottles, respectively, 2.4 mL of the solution was added, and ultrasound was performed for 10 minutes to obtain a colorless clear solution with a concentration of 1 mg/mL.
Balb/C mice, males; PO, after overnight fasting, respectively, at a dose of 10 mg/kg, administered in a volume of 10 mL/kg.
Blood samples were collected before administration and 0.083 h, 0.25 h, 0.5 h, 1 h, 2 h, 4 h, 6 h and 8 h after administration, the blood was placed in EDTA-2K tube, centrifuged at 4° C. 6000 rpm for 6 min to separate plasma, and stored at −80° C.; food was consumed 4 hours after drug administration.

[9] = 3A4-M, read-out: IC50 (nM) 3A4-M
[10] = 3A4-T, read-out: IC50 (nM) 3A4-T

SMILES | IC50 [1] [µM] | Residual rate (%) 0 min ([2]; human, 0.5 μM) [%] | Residual rate (%) 15 min ([2]; human, 0.5 μM) [%] | Residual rate (%) 30 min ([2]; human, 0.5 μM) [%] | Residual rate (%) 60 min ([2]; human, 0.5 μM) [%] | Residual rate (%) 120 min ([2]; human, 0.5 μM) [%] | half-life at 0.5 μM ([2]; human) [h] | half-life at 0.5 μM ([2]; mouse) [h] | Residual rate (%) 0 min [3] [%] | Residual rate (%) 15 min [3] [%] | Residual rate (%) 30 min [3] [%] | Residual rate (%) 60 min [3] [%] | Residual rate (%) 120 min [3] [%] | half-life at 0.5 μM [3] [h] | Residual rate (%) 0 min [4] [%] | Residual rate (%) 15 min [4] [%] | Residual rate (%) 30 min [4] [%] | Residual rate (%) 60 min [4] [%] | Residual rate (%) 120 min [4] [%] | half-life at 0.5 μM [4] [h] | further results
C=CC(=O)N1C[C@H](C)N(c2nc(=O)n(-c3c(SC)ccnc3C(C)C)c3nc(-c4c(N)ccc(Cl)c4F)c(Cl)cc23)C[C@H]1C (single isomer, unassigned) [Embodiment 165-1] | 0.0042 | 100.00 | 102.34 | 100.28 | 90.27 | 87.22 | 8.35 | 16.9 | 100.00 | 95.57 | 96.73 | 93.97 | 91.93 | 19.3 | 100.00 | 97.71 | 96.32 | 94.86 | 92.49 | 19.6 | Residual rate (%) 0 min ([2]; mouse, 0.5 μM): 100.00%; Residual rate (%) 15 min ([2]; mouse, 0.5 μM): 100.58%; Residual rate (%) 30 min ([2]; mouse, 0.5 μM): 99.52%; Residual rate (%) 60 min ([2]; mouse, 0.5 μM): 99.64%; Residual rate (%) 120 min ([2]; mouse, 0.5 μM): 92.32%; IC50 [5]: 58.8 nM; IC50 [6]: 28.8 nM; IC50 [7, 9]: 4.7 nM; IC50 [7, 10]: 9.1 nM; AUC(0-inf) [8]: 347 ng·h/mL; Cmax [8]: 264 ng/mL; MRT [8]: 1.5 h; Tmax [8]: 0.25 h; half-life [8]: 1 h
C=CC(=O)N1C[C@H](C)N(c2nc(=O)n(-c3c(SC)ccnc3C(C)C)c3nc(-c4c(O)cccc4F)c(F)cc23)C[C@H]1C (single isomer, unassigned) [Embodiment 114-1] | 0.038 | – | – | – | – | – | – | – | – | – | – | – | – | – | – | – | – | – | – | – | IC50 [5]: 84.6 nM; IC50 [6]: > 100 nM; IC50 [7, 9]: 19 nM; IC50 [7, 10]: > 100 nM; AUC(0-inf) [8]: 1370 ng·h/mL; Cmax [8]: 1820 ng/mL; MRT [8]: 0.7 h; Tmax [8]: 0.25 h; half-life [8]: 0.6 h
C=CC(=O)N1C[C@H](C)N(c2nc(=O)n(-c3c(SC)ccnc3C(C)C)c3nc(-c4c(O)cccc4F)c(Cl)cc23)C[C@H]1C (single isomer, unassigned) [Embodiment 166-1] | 0.02 | 100.00 | 99.15 | 94.74 | 89.14 | 78.85 | 5.64 | 7.75 | 100.00 | 93.20 | 98.32 | 99.08 | 96.46 | 108 | 100.00 | 99.98 | 98.79 | 93.69 | 86.16 | 8.88 | Residual rate (%) 0 min ([2]; mouse plasma, 37° C.): 100.00%; Residual rate (%) 15 min ([2]; mouse plasma, 37° C.): 105.42%; Residual rate (%) 30 min ([2]; mouse plasma, 37° C.): 100.02%; Residual rate (%) 60 min ([2]; mouse plasma, 37° C.): 99.12%; Residual rate (%) 120 min ([2]; mouse plasma, 37° C.): 85.55%
